Several values for one entry are separate records, joined by “and”; a condition that tells them apart may be missing. Identical values can stand only once.

The subject of experiment [1] is NIH3T3 line transfected with the Per2-Luc reporter. The experiment can be described thus: Period of the circadian rhythm in NIH3T3 fibroblasts with Per2-Luc reporter (luminescence, cosinor analysis). In kind it is cell-based, mouse. Conditions: NIH3T3, DMSO control = 1.00. On the procedure:
NIH3T3 mouse embryonic fibroblasts were grown in standard DMEM with 10% fetal bovine serum. NIH3T3 cells were transfected with 1 μg of Per2-Luc reporter using GeneJuice and selected under hygromycin. The cell line was clonally expanded and a single monoclonal cell line was used for further experiments. Cells were cultured in a 96-well plate in growth medium to 90+% confluence. Test compound or vehicle (DMSO) was applied to recording medium with 100 U/ml penicillin, 100 μg/ml streptomycin, 1x GlutaMAX, 10% fetal calf serum and 0.1 mM Luciferin-EF (Promega Madison, WI, USA). Luminescence was recorded every hour for the next 144 hours. Circadian rhythm analysis was performed using cosinor analysis. Period length was expressed relative to the period of cells affected only by DMSO vehicle (their period length is therefore 1.00).

For experiment [2], the system named is U2OS line transduced with the Bmal 1-Luc reporter. The experiment can be described thus: Period of the circadian rhythm in U2OS cells with Bmal1-Luc reporter (luminescence, cosinor analysis). The class given is cell-based, Human. The following applies: U2OS, DMSO control = 1.00. On the procedure: Human osteosarcoma U2OS cells were grown in standard DMEM medium with 10% fetal bovine serum. U2OS cells were transduced with lentiviral particles containing a Bmall-Luc fusion reporter and selected under Blasticidin. The cell line was clonally expanded and a single monoclonal cell line was used for further experiments. Cells were cultured in a 384-well plate in growth medium to 90+% confluence. Test compound or vehicle (DMSO) was applied to recording medium with 100 U/ml penicillin, 100 ug/ml streptomycin, 1x GlutaMAX, 10% fetal bovine serum, and 0.1 mM Luciferin-EF. Luminescence was recorded every hour for the next 144 hours. Circadian rhythm analysis was performed using cosinor analysis.
The length of the period was expressed relative to the period of cells affected only by DMSO vehicle (their period is therefore 1.00). […] The overall effect on circadian oscillations unequivocally proves that the compounds of formula I can be also used to temporally modulate the concentration and activity of not only BMAL1, but also other components of the oscillator including the critical components PER2, CRY and CLOCK in time, as these are an essential part of the mechanism generating the rhythmic expression of the luminescent reporter used. The concentration and level of other proteins, whose rhythmic expression is controlled by an oscillator in the brain and peripheral tissues (so-called clock-controlled genes), are also necessarily affected. The influence of the compounds of formula I on the activity of oscillator components and subordinate genes also means influencing the physiological processes of the cell controlled by these genes and proteins. N^6-furfuryladenine was used as a reference compound. […] The ability to shift the phase of the circadian cycle can be seen in FIG. 2.

Turning to `CC(C)OCCn1cnc2c(NCc3ccco3)ncnc21` [N-(furan-2-ylmethyl)-9-(2-isopropoxyethyl)-9H-purin-6-amine, reference compound], the “Period length ± standard error of the mean (expressed relative to the control) at the indicated concentration” value in experiment [1] (50 μM) was 50 μM: 0.95 ± 0.02. The “Period length ± standard error of the mean (expressed relative to control) at the indicated concentration” value in experiment [2] (50 μM) is 50 μM: 1.01 ± 0.01.

Take `OCCNc1nc(NCc2ccco2)c2ncn(C3CCCCO3)c2n1` (stereo not drawn) [Compound 45, 2-({6-[(furan-2-ylmethyl)amino]-9-(tetrahydro-2H-pyran-2-yl)-9H-purin-2-yl}amino)ethan-1-ol]: the “Period length ± standard error of the mean (expressed relative to the control) at the indicated concentration” value in experiment [1] (50 μM) is on record as 50 μM: 1.32 ± 0.01. Besides, the “Period length ± standard error of the mean (expressed relative to control) at the indicated concentration” value in experiment [2] (20 μM) is 20 μM: 1.04 ± 0.01.

Regarding `CC(C)Oc1nc(NCc2ccco2)c2ncn(C3CCCCO3)c2n1` (stereo not drawn) [Compound 49, N-(furan-2-ylmethyl)-2-isopropoxy-9-(tetrahydro-2H-pyran-2-yl)-9H-purin-6-amine], the “Period length ± standard error of the mean (expressed relative to control) at the indicated concentration” value in experiment [2] (20 μM) was 20 μM: 1.14 ± 0.01.

As to `c1coc(CNc2nc(NC3CCCC3)nc3c2ncn3C2CCCCO2)c1` (stereo not drawn) [Compound 39], the “Period length ± standard error of the mean (expressed relative to control) at the indicated concentration” value in experiment [2] (20 μM) is recorded as 20 μM: 1.05 ± 0.01.

As to `Clc1nc(NCc2ccco2)c2ncn(C3CCCCO3)c2n1` (stereo not drawn) [Compound 9], the “Period length ± standard error of the mean (expressed relative to control) at the indicated concentration” value in experiment [2] (10 μM) stood at 1.09 ± 0.01; in experiment [2] (20 μM), 1.11 ± 0.01.

In the case of `NCCNc1nc(NCc2ccco2)c2ncn(C3CCOC3)c2n1` (stereo not drawn) [Compound 29], the “Period length ± standard error of the mean (expressed relative to control) at the indicated concentration” value in experiment [2] (20 μM) is reported as 20 μM: 1.09 ± 0.

Regarding `CC(C)Oc1nc(NCc2ccco2)c2ncn(C3CCCC3)c2n1` [Compound 21], the “Period length ± standard error of the mean (expressed relative to control) at the indicated concentration” value in experiment [2] (20 μM) is 20 μM: 1.26 ± 0.06.

As to `CNc1nc(NCc2ccco2)c2ncn(C3CCOC3)c2n1` (stereo not drawn) [Compound 25], in experiment [2] (20 μM), the “Period length ± standard error of the mean (expressed relative to control) at the indicated concentration” value was 20 μM: 1.06 ± 0.01.

In the case of `CC(C)Oc1nc(NCc2ccco2)c2ncn(C3CCOCC3)c2n1` [Compound 59], the “Period length ± standard error of the mean (expressed relative to control) at the indicated concentration” value in experiment [2] (20 μM) was 1.2 ± 0.01 and 1.11 ± 0.02.

As for `c1coc(CNc2nc(N3CCOCC3)nc3c2ncn3C2CCOC2)c1` (stereo not drawn) [Compound 31], the “Period length ± standard error of the mean (expressed relative to control) at the indicated concentration” value in experiment [2] (20 μM) is reported as 20 μM: 1.13 ± 0.01.

For the compound `OCCNc1nc(NCc2ccco2)c2ncn(C3CCOCC3)c2n1` [Compound 57], the “Period length ± standard error of the mean (expressed relative to control) at the indicated concentration” value in experiment [2] (20 μM) is given as 20 μM: 1.16 ± 0.01.

For the compound `CN(C)c1nc(NCc2ccco2)c2ncn(C3CCOCC3)c2n1` [Compound 53], the “Period length ± standard error of the mean (expressed relative to control) at the indicated concentration” value in experiment [2] (20 μM) is recorded as 20 μM: 1.22 ± 0.01.

In the case of `Clc1nc(NCc2ccco2)c2ncn(C3CCOC3)c2n1` (stereo not drawn) [Compound 8], the “Period length ± standard error of the mean (expressed relative to control) at the indicated concentration” value is recorded as 1.04 ± 0.01 in experiment [2] (10 μM) and 1.22 ± 0 in experiment [2] (20 μM).

As to `CN(CCN)c1nc(NCc2ccco2)c2ncn(C3CCOCC3)c2n1` [Compound 54], the “Period length ± standard error of the mean (expressed relative to control) at the indicated concentration” value in experiment [2] (5 μM) is recorded as 5 μM: 1.14 ± 0.02.

On to `Clc1nc(NCc2ccco2)c2[nH]cnc2n1` [2-chloro-N^6-furfuryladenine, reference compound], for which the “Period length ± standard error of the mean (expressed relative to control) at the indicated concentration” value in experiment [2] (20 μM) is listed as 20 μM: 1.00 ± 0.03.

`Cc1ccc(CNc2nc(Cl)nc3c2ncn3C2CCCO2)o1` (stereo not drawn) [Compound 12]: the “Period length ± standard error of the mean (expressed relative to control) at the indicated concentration” value in experiment [2] (10 μM) is recorded as 10 μM: 1.16 + 0.01.

On to `CN(CCN)c1nc(NCc2ccco2)c2ncn(C3CCOC3)c2n1` (stereo not drawn) [Compound 27], for which the “Period length ± standard error of the mean (expressed relative to control) at the indicated concentration” value in experiment [2] (20 μM) is listed as 20 μM: 1.25 ± 0.01.

As for `c1coc(CNc2nc(N3CCOCC3)nc3c2ncn3C2CCCCO2)c1` (stereo not drawn) [Compound 47], the “Period length ± standard error of the mean (expressed relative to control) at the indicated concentration” value in experiment [2] (5 μM) was determined as 1.08 ± 0.01; in experiment [2] (20 μM) it was 1.47 ± 0.03.

As to `OCCNc1nc(NCc2ccco2)c2ncn(C3CCCC3)c2n1` [Compound 19], the “Period length ± standard error of the mean (expressed relative to control) at the indicated concentration” value in experiment [2] (1 μM) is listed as 1.07 ± 0.01; in experiment [2] (4 μM), 1.21 ± 0.01.

For `c1coc(CNc2ncnc3c2ncn3C2CCOCC2)c1` [Compound 5], in experiment [2] (10 μM), the “Period length ± standard error of the mean (expressed relative to control) at the indicated concentration” value is on record as 10 μM: 1.05 ± 0.01.

For `CNc1nc(NCc2ccco2)c2ncn(C3CCOCC3)c2n1` [Compound 52], in experiment [2] (20 μM), the “Period length ± standard error of the mean (expressed relative to control) at the indicated concentration” value is 20 μM: 1.08 ± 0.01.

For the compound `NCCNc1nc(NCc2ccco2)c2ncn(C3CCCCO3)c2n1` (stereo not drawn) [Compound 41], the “Period length ± standard error of the mean (expressed relative to control) at the indicated concentration” value in experiment [2] (1 μM) is given as 1.03 ± 0.01; in experiment [2] (5 μM) it was 1.07 ± 0; in experiment [2] (20 μM), 1.32 ± 0.01.

Regarding `CN(C)CCNc1nc(NCc2ccco2)c2ncn(C3CCOC3)c2n1` (stereo not drawn) [Compound 28], the “Period length ± standard error of the mean (expressed relative to control) at the indicated concentration” value in experiment [2] (20 μM) is 20 μM: 1.16 ± 0.

For `Cc1ccc(CNc2ncnc3nc[nH]c23)o1` [N^6-(5-methylfurfuryl)adenine, reference compound], in experiment [2] (50 μM), the “Period length ± standard error of the mean (expressed relative to control) at the indicated concentration” value is reported as 50 μM: 1.01 ± 0.02.

On to `c1coc(CNc2nc(N3CCCC3)nc3c2ncn3C2CCCCO2)c1` (stereo not drawn) [Compound 40], for which the “Period length ± standard error of the mean (expressed relative to control) at the indicated concentration” value in experiment [2] (10 μM) is given as 10 μM: 1.04 ± 0.

Regarding `CN(C)c1nc(NCc2ccco2)c2ncn(C3CCCCCO3)c2n1` (stereo not drawn) [Compound 61], the results for the “Period length ± standard error of the mean (expressed relative to control) at the indicated concentration” value in experiment [2] (10 μM) and in experiment [2] (20 μM) were 1.04 ± 0.01 and 1.15 ± 0.02, respectively.

Regarding `OCCNc1nc(NCc2ccco2)c2ncn(C3CCOC3)c2n1` (stereo not drawn) [Compound 30], in experiment [2] (20 μM), the “Period length ± standard error of the mean (expressed relative to control) at the indicated concentration” value was 20 μM: 1.05 ± 0.

With `c1coc(CNc2ncnc3c2ncn3C2CCOC2)c1` (stereo not drawn) [Compound 3, N-(furan-2-ylmethyl)-9-(tetrahydrofuran-3-yl)-9H-purin-6-amine], the “Period length ± standard error of the mean (expressed relative to control) at the indicated concentration” value in experiment [2] (10 μM) is reported as 10 μM: 1.06 ± 0.01.

`c1coc(CNc2nc(N3CCOCC3)nc3c2ncn3C2CCOCC2)c1` [Compound 58]: the “Period length ± standard error of the mean (expressed relative to control) at the indicated concentration” value in experiment [2] (20 μM) is given as 20 μM: 1.42 ± 0.04.

As to `Clc1nc(NCc2ccco2)c2ncn(C3CCCO3)c2n1` (stereo not drawn) [Compound 7], the “Period length ± standard error of the mean (expressed relative to control) at the indicated concentration” value in experiment [2] (10 μM) is 10 μM: 1.13 ± 0.02.

On to `CN(CCN)c1nc(NCc2ccco2)c2ncn(C3CCCCO3)c2n1` (stereo not drawn) [Compound 43], for which the “Period length ± standard error of the mean (expressed relative to control) at the indicated concentration” value in experiment [2] (1 μM) is reported as 1 μM: 1.08 ± 0.01.

In the case of `Cc1ccc(CNc2nc(Cl)nc3c2ncn3C2CCCCO2)o1` (stereo not drawn) [Compound 13, 2-chloro-N-[(5-methylfuran-2-yl)methyl]-9-(tetrahydro-2H-pyran-2-yl)-9H-purin-6-amine], in experiment [1] (10 μM), the “Period length ± standard error of the mean (expressed relative to the control) at the indicated concentration” value is recorded as 10 μM: 1.19 ± 0.01.

With `Cc1ccc(CNc2nc(N(C)C)nc3c2ncn3C2CCCCO2)o1` (stereo not drawn) [Compound 51], the “Period length ± standard error of the mean (expressed relative to the control) at the indicated concentration” value in experiment [1] (0.83 μM) is given as 1.05 ± 0.02; in experiment [1] (10 μM), 1.08; in experiment [1] (50 μM), 0.02; 50 μM: 1.74 ± 0.2.

`CN(C)CCNc1nc(NCc2ccco2)c2ncn(C3CCOCC3)c2n1` [Compound 55, N^2-(2-(dimethylamino)ethyl)-N^6-(furan-2-ylmethyl)-9-(tetrahydro-2H-pyran-4-yl)-9H-purine-2,6-diamine]: the “Period length ± standard error of the mean (expressed relative to control) at the indicated concentration” value in experiment [2] (4 μM) was 4 μM: 1.16 ± 0.01.

Regarding `CC(C)Oc1nc(NCc2ccco2)c2ncn(C3CCOC3)c2n1` (stereo not drawn) [Compound 32], the “Period length ± standard error of the mean (expressed relative to control) at the indicated concentration” value in experiment [2] (20 μM) is recorded as 20 μM: 1.09 ± 0.

As to `Nc1ncnc2c1ncn2C1CCCO1` (stereo not drawn) [9-(tetrahydrofuran-2-yl)-9H-purin-6-amine, reference compound], in experiment [2] (20 μM), the “Period length ± standard error of the mean (expressed relative to control) at the indicated concentration” value was 20 μM: 0.98 ± 0.02.

Turning to `c1coc(CNc2ncnc3c2ncn3C2CCCO2)c1` (stereo not drawn) [Compound 2], the “Period length ± standard error of the mean (expressed relative to control) at the indicated concentration” value in experiment [2] (10 μM) is recorded as 10 μM: 1.05 ± 0.01.

These data come from US20250346601A1, “HETEROCYCLIC COMPOUNDS FOR THE PREVENTION AND THERAPY OF CIRCADIAN RHYTHM DISORDERS” (UNIVERZITA PALACKEHO V OLOMOUCI, priority 2022, published 2025).
